Results on one molecule are retold here after patent publication US7304079B2, “Substituted indolealkanoic acids” (The Institute for Pharmaceutical Discovery, LLC, priority 1998, dated 2007).

In the experiment the target is T1, human aldehyde reductase (hALR1) (Homo sapiens, UniProt P14550).
T1 sequence (P14550 1-325): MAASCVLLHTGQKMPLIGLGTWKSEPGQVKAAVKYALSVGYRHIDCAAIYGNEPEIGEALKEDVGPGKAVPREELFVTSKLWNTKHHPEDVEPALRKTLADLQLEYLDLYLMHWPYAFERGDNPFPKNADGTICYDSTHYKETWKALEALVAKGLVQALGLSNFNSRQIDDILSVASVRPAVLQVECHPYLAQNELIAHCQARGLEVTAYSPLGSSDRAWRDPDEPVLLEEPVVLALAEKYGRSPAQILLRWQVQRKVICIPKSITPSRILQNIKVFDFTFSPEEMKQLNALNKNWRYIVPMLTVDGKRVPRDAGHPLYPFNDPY
The experiment in a line: human aldehyde reductase (hALR1) inhibition. It is filed as biochemical. The method, then:
In a second assay, a number of the same compounds were tested for their ability to inhibit aldehyde reductase (hALR1), a structurally related enzyme.

Where only a bound is given, the exact number is not on record here.

For `O=C(O)Cn1cc(Cc2nc3c(F)c(F)cc(F)c3s2)c2ccc(N3CCOCC3)cc21` [Example 18, 6-morpholino-3-(4,5,7-trifluorobenzothiazol-2-yl)methyl-indole-N-acetic acid], the 50% inhibitory concentration (IC50) was > 100 nM.
